Source: patent US11242337B2, “Compounds useful for treating gastrointestinal tract disorders” (Ardelyx, Inc., priority 2017, dated 2022)

Experiments:
NHE3 [1] = target: T1, NHE3 (Homo sapiens, UniProt P48764); assay: Cell-based assay of NHE-3 activity (persistent inhibition), human; conditions: human Persistence, 60 min incubation then washout
T1 construct: expressed in transfected cells
T1 sequence (P48764 26-834): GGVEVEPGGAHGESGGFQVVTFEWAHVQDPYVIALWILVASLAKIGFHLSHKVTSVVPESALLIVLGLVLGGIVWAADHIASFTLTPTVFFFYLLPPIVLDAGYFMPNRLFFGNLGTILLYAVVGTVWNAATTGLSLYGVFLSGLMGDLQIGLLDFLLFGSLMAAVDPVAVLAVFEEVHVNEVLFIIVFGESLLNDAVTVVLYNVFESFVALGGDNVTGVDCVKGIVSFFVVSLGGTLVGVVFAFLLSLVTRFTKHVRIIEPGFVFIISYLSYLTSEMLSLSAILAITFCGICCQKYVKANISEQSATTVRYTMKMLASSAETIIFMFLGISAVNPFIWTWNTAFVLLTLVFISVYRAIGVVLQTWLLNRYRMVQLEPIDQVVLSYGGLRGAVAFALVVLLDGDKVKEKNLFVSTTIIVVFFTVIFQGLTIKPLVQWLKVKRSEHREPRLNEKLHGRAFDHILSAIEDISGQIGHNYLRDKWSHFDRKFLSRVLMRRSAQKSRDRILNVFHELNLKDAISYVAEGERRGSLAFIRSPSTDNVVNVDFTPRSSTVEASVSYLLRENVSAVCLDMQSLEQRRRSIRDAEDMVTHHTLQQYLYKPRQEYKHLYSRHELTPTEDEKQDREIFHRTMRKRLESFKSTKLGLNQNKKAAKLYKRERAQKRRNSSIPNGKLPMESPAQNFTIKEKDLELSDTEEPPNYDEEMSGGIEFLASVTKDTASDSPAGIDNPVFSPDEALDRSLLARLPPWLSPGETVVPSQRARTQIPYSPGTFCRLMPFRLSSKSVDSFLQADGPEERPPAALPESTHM
T1 sequence (Q99653 2-195 partner limits assumed): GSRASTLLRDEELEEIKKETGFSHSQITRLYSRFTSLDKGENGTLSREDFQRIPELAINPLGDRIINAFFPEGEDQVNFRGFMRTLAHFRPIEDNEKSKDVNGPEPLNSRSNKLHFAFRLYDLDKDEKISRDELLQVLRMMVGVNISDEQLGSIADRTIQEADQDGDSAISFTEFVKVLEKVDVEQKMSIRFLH
Outline: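 PS120 fibroblasts expressing human NHE3 with NHERF2 exposed to 0-30 μM compound for 60 min at RT, then washed out; cells acid-loaded by NH4Cl prepulse with BCECF-AM and Na+-free buffer. Na+-driven pH recovery started 10 min post-washout; initial rate of BCECF ratio change (FLIPR) taken as activity.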

NHE3 [2] = target: T1, NHE3; assay: Cell-based assay of NHE-3 activity (pre-incubation inhibition), human; conditions: human Preincubation; for pIC50 / IC50: 0-30 μM test compound
Outline: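 PS120 fibroblasts stably expressing human NHE3 and NHERF2, loaded 30 min at 37 °C with 5 μM BCECF-AM in NH4Cl buffer, then acidified 10 min at room temperature in Na+-free buffer with 0–30 μM compound. Initial rate of BCECF fluorescence ratio change (FLIPR) per minute taken as Na+/H+ activity.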

| Structure (SMILES) | % inhibition (NHE3 [1]) | pIC50 (NHE3 [1]) | % inhibition (NHE3 [2]) | pIC50 (NHE3 [2]) | IC50 (NHE3 [1]) [nM] | IC50 (NHE3 [2]) [nM] |
| --- | --- | --- | --- | --- | --- | --- |
| CC1(C)O[C@H]2[C@@H](OC(C)(C)O[C@H]2C(=O)NCc2cn(CCCCNS(=O)(=O)c3ccc(O[C@H]4c5cc(Cl)cc(Cl)c5C[C@@H]4N4CCC[C@@H](N)C4)cc3)nn2)[C@@H](C(=O)NCc2cn(CCCCNS(=O)(=O)c3ccc(O[C@H]4c5cc(Cl)cc(Cl)c5C[C@@H]4N4CCC[C@@H](N)C4)cc3)nn2)O1 [Example 60, (4R,4aS,8S,8aR)—N^4,N^8-Bis([1-(4-[4-((1S,2S)-2-[(3R)-3-aminopiperidin-1-yl]-4,6-dichloro-2,3-dihydro-1H-inden-1-yloxy)phenylsulfonamide]butyl)-1H-1,2,3-traizol-4-yl]methyl)-2,2,6,6-tetramethyl-tetrahydro-[1,3]dioxino[5,4-d][1,3]dioxine-4,8-dicarboxamide] | C (>70%) | C (NHE3 pIC50 > 7) | C (>70%) | C (NHE3 pIC50 > 7) |  |  |
| N[C@@H]1CCCN([C@H]2Cc3c(Cl)cc(Cl)cc3[C@@H]2Oc2ccc(S(=O)(=O)NCCCCCCCCNC(=O)NCCCCNC(=O)NCCCCCCCCNS(=O)(=O)c3ccc(O[C@H]4c5cc(Cl)cc(Cl)c5C[C@@H]4N4CCC[C@@H](N)C4)cc3)cc2)C1 [Example 62, 3-[8-[(4-[[(1S,2S)-2-[(3R)-3-Aminopiperidin-1-yl]-4,6-dichloro-2,3-dihydro-1H-inden-1-yl]oxy]benzene)sulfonamido]octyl]-1-[4-[([8-[(4-[[(1S,2S)-2-[(3R)-3-aminopiperidin-1-yl]-4,6-dichloro-2,3-dihydro-1H-inden-1-yl]oxy]benzene)sulfonamido]octyl]carbamoyl)amino]butyl]urea; bis(trifluoroacetic acid)] | A (NHE3 < 40%) |  | C (>70%) |  | > 1000 | < 100 |
| Cc1cc(S(=O)(=O)NCCCCCCCCNC(=O)NCCCCNC(=O)NCCCCCCCCNS(=O)(=O)c2ccc(O[C@H]3c4cc(Cl)cc(Cl)c4C[C@@H]3N3CCC[C@@H](N)C3)c(C)c2)ccc1O[C@H]1c2cc(Cl)cc(Cl)c2C[C@@H]1N1CCC[C@@H](N)C1 [Example 63, 3-[8-[(4-[[(1S,2S)-2-[(3R)-3-Aminopiperidin-1-yl]-4,6-dichloro-2,3-dihydro-1H-inden-1-yl]oxy]-3-methylbenzene)sulfonamido]octyl]-1-[4-[([8-[(4-[[(1S,2S)-2-[(3R)-3-aminopiperidin-1-yl]-4,6-dichloro-2,3-dihydro-1H-inden-1-yl]oxy]-3-methylbenzene)sulfonamide]octyl]carbamoyl)amino]butyl]urea] | B (40-70%) |  | B (40-70%) | C (NHE3 pIC50 > 7) | 100 to 1000 |  |
| CN(C)[C@H]1Cc2c(Cl)cc(Cl)cc2[C@@H]1Oc1ccc(S(=O)(=O)NCCCCCCCCNC(=O)NCCCCNC(=O)NCCCCCCCCNS(=O)(=O)c2ccc(O[C@H]3c4cc(Cl)cc(Cl)c4C[C@@H]3N(C)C)cc2)cc1 [Example 64, 3-[8-[(4-[[(1S,2S)-4,6-Dichloro-2-(diamethylamino)-2,3-dihydro-1H-inden-1-yl]oxy]benzene)sulfonamido]octyl]-1-[4-[([8-[(4-[[(1S,2S)-4,6-dichloro-2-(diamethylamino)-2,3-dihydro-1H-inden-1-yl]oxy]benzene)sulfonamido]octyl]carbamoyl)amino]butyl]urea; bis(trifluoroacetic acid)] | A (NHE3 < 40%) |  | A (NHE3 < 40%) |  |  |  |
| Cc1cc(S(=O)(=O)NCCCCCCCCNC(=O)NCCCCNC(=O)NCCCCCCCCNS(=O)(=O)c2ccc(O[C@H]3c4cc(Cl)cc(Cl)c4C[C@@H]3N(C)C)c(C)c2)ccc1O[C@H]1c2cc(Cl)cc(Cl)c2C[C@@H]1N(C)C [Example 65, 3-[8-[(4-[[(1S,2S)-4,6-Dichloro-2-(dimethylamino)-2,3-dihydro-1H-inden-1-yl]oxy]-3-methylbenzene)sulfonamido]octyl]-1-[4-[([8-[(4-[[(1S,2S)-4,6-dichloro-2-(dimethylamino)-2,3-dihydro-1H-inden-1-yl]oxy]-3-methylbenzene)sulfonamido]octyl]carbamoyl)amino]butyl]urea] | A (NHE3 < 40%) |  | A (NHE3 < 40%) |  |  |  |
| C[C@@H]1CCCCN1[C@H]1Cc2c(Cl)cc(Cl)cc2[C@@H]1Oc1ccc(S(=O)(=O)NCCOCCOCCNC(=O)NCCCCNC(=O)NCCOCCOCCNS(=O)(=O)c2ccc(O[C@H]3c4cc(Cl)cc(Cl)c4C[C@@H]3N3CCCC[C@H]3C)cc2)cc1 [Example 66, 3-[2-(2-[2-[(4-[[(1S,2S)-4,6-Dichloro-2-[(2R)-2-methylpiperidin-1-yl]-2,3-dihydro-1H-inden-1-yl]oxy]benzene)sulfonamido]ethoxy]ethoxy)ethyl]-1-[4-([[2-(2-[2-[(4-[[(1S,2S)-4,6-dichloro-2-[(2R)-2-methylpiperidin-1-yl]-2,3-dihydro-1H-inden-1-yl]oxy]benzene)sulfonamido]ethoxy]ethoxy)ethyl]carbamoyl]amino)butyl]urea] | A (NHE3 < 40%) | A (NHE3 pIC50 < 6) | A (NHE3 < 40%) | A (NHE3 pIC50 < 6) |  |  |
| C[C@H]1CCCCN1[C@H]1Cc2c(Cl)cc(Cl)cc2[C@@H]1Oc1ccc(S(=O)(=O)NCCOCCOCCNC(=O)NCCCCNC(=O)NCCOCCOCCNS(=O)(=O)c2ccc(O[C@H]3c4cc(Cl)cc(Cl)c4C[C@@H]3N3CCCC[C@@H]3C)cc2)cc1 [Example 67, 3-[2-(2-[2-[(4-[[(1S,2S)-4,6-Dichloro-2-[(2S)-2-methylpiperidin-1-yl]-2,3-dihydro-1H-inden-1-yl]oxy]benzene)sulfonamido]ethoxy]ethoxy)ethyl]-1-[4-([[2-(2-[2-[(4-[[(1S,2S)-4,6-dichloro-2-[(2S)-2-methylpiperidin-1-yl]-2,3-dihydro-1H-inden-1-yl]oxy]benzene)sulfonamide]ethoxy]ethoxy)ethyl]carbamoyl]amino)butyl]urea] | B (40-70%) |  | C (>70%) |  | 100 to 1000 | 100 to 1000 |
| O=C(NCCCCNC(=O)NCCOCCOCCNS(=O)(=O)c1ccc(O[C@H]2c3cc(Cl)cc(Cl)c3C[C@@H]2N2CC3CCC2C3)cc1)NCCOCCOCCNS(=O)(=O)c1ccc(O[C@H]2c3cc(Cl)cc(Cl)c3C[C@@H]2N2CC3CCC2C3)cc1 [Example 68] | C (>70%) | C (NHE3 pIC50 > 7) | C (>70%) | C (NHE3 pIC50 > 7) |  |  |
| O=C(NCCCCNC(=O)NCCOCCOCCNS(=O)(=O)c1ccc(O[C@H]2c3cc(Cl)cc(Cl)c3C[C@@H]2N2CC3CCC2CC3)cc1)NCCOCCOCCNS(=O)(=O)c1ccc(O[C@H]2c3cc(Cl)cc(Cl)c3C[C@@H]2N2CC3CCC2CC3)cc1 [Example 69, 1-[2-(2-[2-[(4-[[(1S,2S)-2-[2-Azabicyclo[2.2.2]octan-2-yl]-4,6-dichloro-2,3-dihydro-1H-inden-1-yl]oxy]benzene)sulfonamido]ethoxy]ethoxy)ethyl]-3-[4-([[2-(2-[2-[(4-[[(1S,2S)-2-[2-azabicyclo[2.2.2]octan-2-yl]-4,6-dichloro-2,3-dihydro-1H-inden-1-yl]oxy]benzene)sulfonamido]ethoxy]ethoxy)ethyl]carbamoyl]amino)butyl]urea] | C (>70%) |  | C (>70%) | C (NHE3 pIC50 > 7) | 100 to 1000 |  |
| O=C(NCCCCNC(=O)NCCOCCOCCNS(=O)(=O)c1ccc(O[C@H]2c3cc(Cl)cc(Cl)c3C[C@@H]2N2C3CCCC2CC3)cc1)NCCOCCOCCNS(=O)(=O)c1ccc(O[C@H]2c3cc(Cl)cc(Cl)c3C[C@@H]2N2C3CCCC2CC3)cc1 [Example 70, 3-[2-(2-[2-[(4-[[(1S,2S)-2-[8-azabicyclo[3.2.1]octan-8-yl]-4,6-dichloro-2,3-dihydro-1H-inden-1-yl]oxy]benzene)sulfonamido]ethoxy]ethoxy)ethyl]-1-[4-([[2-(2-[2-[(4-[[(1S,2S)-2-[8-azabicyclo[3.2.1]octan-8-yl]-4,6-dichloro-2,3-dihydro-1H-inden-1-yl]oxy]benzene)sulfonamido]ethoxy]ethoxy)ethyl]carbamoyl]amino)butyl]urea] | C (>70%) |  | C (>70%) |  |  |  |
